Assay [1] deals with human A2B adenosine receptor (Homo sapiens (Human), UniProt P29275). Kind of assay: A2B binding affinity, radioligand filtration binding assay. The settings on record: HEK293 membranes expressing human A2B, tritiated proprietary antagonist. From the text:
(§1) Method (A) describes the procedure used to measure A2A binding affinity using radioligand binding. Method (B) describes the procedure used to measure A2A binding affinity using SPA technology. The method used to measure A2B binding affinity is also described below. The method used to determine the A2A IC50 value reported for each compound in the table is indicated next to the reported value. The A2B IC50 value measured using the A2B binding affinity assay is shown in the table next to the compound under the corresponding A2A value.
Measurement of A2B Binding Affinity
The reported affinity of the compounds of the invention for the human A2B adenosine receptor was determined experimentally using a radioligand filtration binding assay. This assay measures the amount of binding of a tritiated proprietary A2B receptor antagonist, in the presence and absence of a compound of the invention, to membranes made from HEK293 cells recombinantly expressing the human A2B adenosine receptor (Perkin Elmer, Cat. No. ES-013-C).
148 μL (135 μg/mL) membranes and 2 μL test compounds were transferred to individual wells of a 96-well polypropylene assay plate and incubated for 15 to 30 min at room temperature with agitation. Tritiated radioligand was diluted to a concentration of 14 nM in assay buffer (phosphate buffered saline without Magnesium and Calcium, pH 7.4; GE Healthcare Life Sciences, Cat. No. SH30256.01) and then 50 μL of the solution were transferred to each well of the assay plate. To define total and non-specific binding, wells containing 1% DMSO and 20 μM N-ethylcarboxamidoadenosine (Tocris Bioscience, Cat. No. 1691) respectively, were also included. The wells of the assay plate were incubated at room temperature for 60 min with agitation, then filtered using a FilterMate Harvester® (Perkin Elmer) or similar equipment through a UniFilter-96@ PEI coated plate (Perkin Elmer Cat. No. 6005274 or 6005277). Filtering was achieved by aspirating the contents of the assay plate for 5 sec, then washing and aspirating the contents three times with ice-cooled wash buffer (assay buffer supplemented with 0.0025% Brij58) and allowing the vacuum manifold to dry the plate for 30 sec. The filter plate was incubated for at least 1 h at 55° C. and allowed to dry. The bottom of the filter plate was then sealed with backing tape. 40 μL Ultima Gold™ (Perkin Elmer, Cat. No. 6013329) was added to each well of the filter plate and the top of the plate was sealed with TopSeal-A PLUS® clear plate seal (Perkin Elmer, Cat. No. 6050185). The plates were then incubated for at least 20 min, and then the amount of radioactivity remaining in each well was determined using a TopCount® (Perkin Elmer) scintillation counter. After normalization to total and non-specific binding, the percent effect at each compound concentration was calculated. The plot of percent effect versus the log of compound concentration was analyzed electronically using a 4-parameter logistic fit based on the Levenberg-Marquardt algorithm to generate IC50 values.

Assay [2] addresses human A2A adenosine receptor (Homo sapiens (Human), UniProt P29274). Put plainly: A2A binding affinity using radioligand binding, Method (A). The settings on record: Method (A): filtration radioligand binding, [3H] SCH58261, membranes expressing human A2A.
Description: as §1
The A2A receptor affinity binding assay measured the amount of binding of a tritiated ligand with high affinity for the A2A adenosine receptor to membranes made from HEK293 or CHO cells recombinantly expressing the human A2A adenosine receptor, in the presence of varying concentrations of a compound of the invention. The data were generated using either filtration binding or a homogenous scintillation proximity assay (SPA).
Method (A): Measurement of A2A Binding Affinity Using Radioligand Binding
148 μL (5 μg/mL) membranes (Perkin Elmer, Cat. No. RBHA2aM400UA) and 2 μL compounds of the invention to be tested (test compound) were transferred to individual wells of a 96-well polypropylene assay plate and incubated for 15 to 30 min at room temperature. [^3H] SCH58261 ((7-(2-phenylethyl)-5-amino-2-(2-furyl)-pyrazolo-[4,3-e]-1,2,4-triazolo[1,5-c]pyrimidine)) was diluted in assay buffer (50 mM Tris pH 7.4, 10 mM MgCl2, 0.005% Tween20) to a concentration of 4 nM and 50 μL transferred to each well of the assay plate. To define total and non-specific binding, wells containing 1% DMSO and 1 μM ZM241385 (Tocris Bioscience, Cat. No. 1036) respectively, were also included. The assay plate was incubated at room temperature for 60 min with agitation. Using a FilterMate Harvester® (Perkin Elmer), the contents of the assay plate were filtered through a UniFilter-96® PEI coated plate (Perkin Elmer Cat. No. 6005274 or 6005277). Filtering was achieved by aspirating the contents of the assay plate for 5 sec, then washing and aspirating the contents three times with ice-cooled wash buffer (50 mM Tris-HCl pH 7.4, 150 mM NaCl) and allowing the vacuum manifold to dry the plate for 30 sec. The filter plate was incubated for at least 1 h at 55° C. and allowed to dry. The bottom of the filter plate was sealed with backing tape. 40 μL Ultima Gold™ (Perkin Elmer, Cat. No. 6013329) was added to each well of the filter plate and the top of the plate was sealed with TopSeal-A PLUS® clear plate seal (Perkin Elmer, Cat. No. 6050185). The plate was incubated for at least 20 min, and then the amount of radioactivity remaining in each well was determined using a TopCount® (Perkin Elmer) scintillation counter. After normalization to total and non-specific binding, the percent effect at each compound concentration was calculated. The plot of percent effect versus the log of compound concentration was analyzed electronically using a 4-parameter logistic fit based on the Levenberg-Marquardt algorithm to generate IC50 values.

human A2A adenosine receptor, sequence (P29274 whole entry): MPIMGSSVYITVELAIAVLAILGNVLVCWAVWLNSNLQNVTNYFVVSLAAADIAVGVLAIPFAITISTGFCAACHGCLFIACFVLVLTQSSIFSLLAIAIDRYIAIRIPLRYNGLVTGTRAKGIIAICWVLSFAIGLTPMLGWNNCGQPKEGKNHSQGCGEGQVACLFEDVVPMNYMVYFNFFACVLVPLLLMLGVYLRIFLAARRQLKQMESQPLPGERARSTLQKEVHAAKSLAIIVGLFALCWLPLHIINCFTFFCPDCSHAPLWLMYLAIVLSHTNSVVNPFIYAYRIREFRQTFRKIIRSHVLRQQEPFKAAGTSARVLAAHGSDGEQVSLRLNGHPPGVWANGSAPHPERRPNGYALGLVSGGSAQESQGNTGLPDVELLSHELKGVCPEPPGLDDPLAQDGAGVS
human A2B adenosine receptor, sequence (P29275 whole entry): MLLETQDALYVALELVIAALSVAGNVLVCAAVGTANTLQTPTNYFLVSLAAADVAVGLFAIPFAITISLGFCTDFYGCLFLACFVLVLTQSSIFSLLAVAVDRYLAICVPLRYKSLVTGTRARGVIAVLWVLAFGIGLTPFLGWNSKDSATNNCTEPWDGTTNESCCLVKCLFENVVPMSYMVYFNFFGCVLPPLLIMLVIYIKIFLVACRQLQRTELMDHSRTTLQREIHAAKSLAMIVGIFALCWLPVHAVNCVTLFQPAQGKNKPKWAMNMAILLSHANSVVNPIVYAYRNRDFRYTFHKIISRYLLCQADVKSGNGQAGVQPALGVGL

As for `COc1cc2nc(N)n3nc(CC(C)S(C)(=O)=O)nc3c2cc1F` (single isomer, unassigned) [Example 13.2B, (R or S)-9-fluoro-8-methoxy-2-(2-(methylsulfonyl)propyl)-[1,2,4]triazolo[1,5-c]quinazolin-5-amine], the IC50 (usually the concentration at which inhibition is half-maximal) in assay [1] (value given with marker (A)) came out at 1050 nM; in assay [2], 8.1 nM.
In the case of `COc1cccc2c1nc(N)n1nc(C[C@H](C)O)nc21` [Example 18.3, (S)-1-(5-amino-7-methoxy-[1,2,4]triazolo[1,5-c]quinazolin-2-yl)propan-2-ol], the values for the IC50 in assay [1] (value given with marker (B)) and in assay [2] were 214 nM and 6.7 nM, respectively.
For the compound `COc1cccc2c1nc(N)n1nc(COCc3ccc(C(O)(C(F)(F)F)C(F)(F)F)cc3)nc21` [Example 4.1, 2-(4-(((5-amino-7-methoxy-[1,2,4]triazolo[1,5-c]quinazolin-2-yl)methoxy)methyl)phenyl)-1,1,1,3,3,3-hexafluoropropan-2-ol], the IC50 in assay [1] (value given with marker (A)) was 0.6 nM; in assay [2], 0.1 nM.
In the case of `COc1cccc2c1nc(N)n1nc([C@H](C)CO)nc21` [Example 17.4, (S)-2-(5-amino-7-methoxy-[1,2,4]triazolo[1,5-c]quinazolin-2-yl)propan-1-ol], the figures for the IC50 in assay [1] (value given with marker (B)) and in assay [2] were 1070 nM and 145 nM, respectively.
As to `COc1cccc2c1nc(N)n1nc(COCc3ccc(C(C)(C)O)cc3)nc21` [Example 4.15, 2-(4-(((5-amino-7-methoxy-[1,2,4]triazolo[1,5-c]quinazolin-2-yl)methoxy)methyl)phenyl)propan-2-ol], the IC50 in assay [1] (value given with marker (A)) came to 10 nM; in assay [2] it was 0.2 nM.
The corresponding values for `COc1cc(F)cc2c1nc(N)n1nc(CCC3CCc4nn(C(C)C)cc4C3)nc21` (single isomer, unassigned) [Example 5.4A, (S or R)-9-fluoro-2-(2-(2-isopropyl-4,5,6,7-tetrahydro-2H-indazol-5-yl)ethyl)-7-methoxy-[1,2,4]triazolo[1,5-c]quinazolin-5-amine] are 9.4 nM and 1.9 nM.
The corresponding values for `COc1cc2nc(N)n3nc(CCS(C)(=O)=O)nc3c2cc1F` [Example 6.4, 9-fluoro-8-methoxy-2-(2-(methylsulfonyl)ethyl)-[1,2,4]triazolo[1,5-c]quinazolin-5-amine] are 1900 nM and 222 nM.
The corresponding values for `COc1cc(F)cc2c1nc(N)n1nc(CCS(=O)(=O)C3CC3)nc21` [Example 13.10, 2-(2-(cyclopropylsulfonyl)ethyl)-9-fluoro-7-methoxy-[1,2,4]triazolo[1,5-c]quinazolin-5-amine] are 9.8 nM and 0.8 nM.
As to `COc1cc2nc(N)n3nc(CCS(=O)(=O)CC(C)C)nc3c2cc1F` [Example 13.16, 9-fluoro-2-(2-(isobutylsulfonyl)ethyl)-8-methoxy-[1,2,4]triazolo[1,5-c]quinazolin-5-amine], the IC50 is 1080 nM in assay [1] (value given with marker (A)) and 107 nM in assay [2].
The corresponding values for `COc1cc(F)cc2c1nc(N)n1nc(CCCS(=O)(=O)C3CC3)nc21` [Example 13.18, 2-(3-(cyclopropylsulfonyl)propyl)-9-fluoro-7-methoxy-[1,2,4]triazolo[1,5-c]quinazolin-5-amine] are 112 nM and 1.1 nM.
The corresponding values for `COc1cccc2c1nc(N)n1nc(CCS(C)(=O)=O)nc21` [Example 6.3, 7-methoxy-2-(2-(methylsulfonyl)ethyl)-[1,2,4]-triazolo[1,5-c]quinazolin-5-amine] are 535 nM and 8.2 nM.
The corresponding values for `COc1cccc2c1nc(N)n1nc(CCS(C)(=O)=O)nc21` [Example 13.17, 7-methoxy-2-(2-(methylsulfonyl)ethyl)-[1,2,4]triazolo[1,5-c]quinazolin-5-amine] are 410 nM and 28.1 nM.
With `COc1ccc2c(c1)nc(N)n1nc(CCS(=O)(=O)c3ccc(F)cc3)nc21` [Example 13.7, 2-(2-((4-fluorophenyl)sulfonyl)ethyl)-8-methoxy-[1,2,4]triazolo[1,5-c]quinazolin-5-amine], the IC50 in assay [1] (value given with marker (A)) was 607 nM; in assay [2] it was 170 nM.
The corresponding values for `COc1ccc2c(c1)nc(N)n1nc(CCS(=O)(=O)CC(C)C)nc21` [Example 13.8, 2-(2-(isobutylsulfonyl)ethyl)-8-methoxy-[1,2,4]triazolo-[1,5-c]quinazolin-5-amine] are 894 nM and 76.9 nM.
In the case of `CCS(=O)(=O)CCc1nc2c3cc(F)cc(OC)c3nc(N)n2n1` [Example 13.15, 2-(2-(ethylsulfonyl)ethyl)-9-fluoro-7-methoxy-[1,2,4]triazolo[1,5-c]quinazolin-5-amine], the IC50 was 220 nM in assay [1] (value given with marker (A)) and 9.8 nM in assay [2].
The corresponding values for `COc1cc2nc(N)n3nc(CC(C)S(C)(=O)=O)nc3c2cc1F` (single isomer, unassigned) [Example 13.2A, (S or R)-9-fluoro-8-methoxy-2-(2-(methylsulfonyl)propyl)-[1,2,4]triazolo[1,5-c]quinazolin-5-amine] are 61.4 nM and 0.7 nM.
The corresponding values for `COc1cc2nc(N)n3nc(CCS(=O)(=O)C4CC4)nc3c2cc1F` [Example 13.14, 2-(2-(cyclopropylsulfonyl)ethyl)-9-fluoro-8-methoxy-[1,2,4]triazolo[1,5-c]quinazolin-5-amine] are 197 nM and 9.1 nM.
Consider `COc1cc2nc(N)n3nc(CCS(N)(=O)=O)nc3c2cc1F` [Example 6.5, 2-(5-amino-9-fluoro-8-methoxy-[1,2,4]triazolo-[1,5-c]quinazolin-2-yl)ethane-1-sulfonamide], for which the figures for the IC50 in assay [1] (value given with marker (A)) and in assay [2] were 113 nM and 107 nM, respectively.
The corresponding values for `COc1cc2nc(N)n3nc(CCS(=O)(=O)c4ccccc4)nc3c2cc1F` [Example 6.2, 9-fluoro-8-methoxy-2-(2-(phenylsulfonyl)ethyl)-[1,2,4]triazolo[1,5-c]quinazolin-5-amine] are 455 nM and 4.8 nM.
As to `COc1cc(F)cc2c1nc(N)n1nc(CCS(=O)(=O)CC(C)C)nc21` [Example 13.11, 9-fluoro-2-(2-(isobutylsulfonyl)ethyl)-7-methoxy-[1,2,4]triazolo[1,5-c]quinazolin-5-amine], the IC50 turned out to be 666 nM in assay [1] (value given with marker (A)) and 28.8 nM in assay [2].
On to `CCS(=O)(=O)CCc1nc2c3ccc(OC)cc3nc(N)n2n1` [Example 13.9, 2-(2-(ethylsulfonyl)ethyl)-8-methoxy-[1,2,4]triazolo-[1,5-c]quinazolin-5-amine], for which the IC50 in assay [1] (value given with marker (A)) is 1060 nM; in assay [2], 246 nM.

The values are drawn from US20240076297A1, “ADENOSINE A2A AND A2B RECEPTOR DUAL ANTAGONISTS FOR IMMUNO-ONCOLOGY” (Merck Sharp & Dohme LLC, priority 2020, published 2024).
